Measurements reported in ChEMBL document CHEMBL3751693, “Synthesis, antimicrobial evaluation and molecular modeling of 5-hydroxyisoquinolinium salt series; the effect of the hydroxyl moiety” (Bioorg Med Chem, 2016).

Experiments:
[1] = test system: Candida albicans; assay: Antimicrobial activity against Candida albicans ATCC 44859 after 48 hrs by spectrophotometry; assay type: functional; conditions: ATCC 44859, 48 h
[2] = test system: Staphylococcus aureus; assay: Antimicrobial activity against clinical isolate methicillin-resistant Staphylococcus aureus H 599608 after 24 hrs; assay type: functional; conditions: H 599608, 24 h
[3] = test system: Trichophyton mentagrophytes; assay: Antimicrobial activity against Trichophyton mentagrophytes 445 after 120 hrs by spectrophotometry; assay type: functional; conditions: Trichophyton mentagrophytes, 445, 120 h
[4] = test system: Staphylococcus epidermidis; assay: Antimicrobial activity against clinical isolate Staphylococcus epidermidis H 696608 after 24 hrs; assay type: functional; conditions: H 696608, 24 h
[5] = test system: Trichosporon asahii; assay: Antimicrobial activity against Trichosporon asahii 1188 after 48 hrs by spectrophotometry; assay type: functional; conditions: Trichosporon asahii, 1188, 48 h
[6] = test system: Klebsiella pneumoniae; assay: Antimicrobial activity against clinical isolate ESBL-Klebsiella pneumoniae J 1436808 after 48 hrs; assay type: functional; conditions: J 1436808, 48 h
[7] = test system: Escherichia coli; assay: Antimicrobial activity against clinical isolate Escherichia coli CCM 4517 after 24 hrs; assay type: functional; conditions: CCM 4517, 24 h
[8] = test system: Staphylococcus aureus; assay: Antimicrobial activity against clinical isolate Staphylococcus aureus CCM 451608 after 24 hrs; assay type: functional; conditions: CCM 451608, 24 h
[9] = test system: Klebsiella pneumoniae; assay: Antimicrobial activity against clinical isolate ESBL-Klebsiella pneumoniae J 1436808 after 24 hrs; assay type: functional; conditions: J 1436808, 24 h
[10] = test system: Klebsiella pneumoniae; assay: Antimicrobial activity against clinical isolate Klebsiella pneumoniae D 1175008 after 24 hrs; assay type: functional; conditions: D 1175008, 24 h
[11] = test system: Pichia kudriavzevii; assay: Antimicrobial activity against Candida krusei E28 after 24 hrs by spectrophotometry; assay type: functional; conditions: E28, 24 h
[12] = test system: Pseudomonas aeruginosa; assay: Antimicrobial activity against clinical isolate Pseudomonas aeruginosa CCM 1961 after 72 hrs; assay type: functional; conditions: CCM 1961, 72 h
[13] = test system: Aspergillus fumigatus; assay: Antimicrobial activity against Aspergillus fumigatus 231 after 48 hrs by spectrophotometry; assay type: functional; conditions: Aspergillus fumigatus, 231, 48 h
[14] = test system: Trichophyton mentagrophytes; assay: Antimicrobial activity against Trichophyton mentagrophytes 445 after 72 hrs by spectrophotometry; assay type: functional; conditions: Trichophyton mentagrophytes, 445, 72 h
[15] = test system: Lichtheimia corymbifera; assay: Antimicrobial activity against Absidia corymbifera 272 after 24 hrs by spectrophotometry; assay type: functional; conditions: Lichtheimia corymbifera, 272, 24 h
[16] = test system: Candida albicans; assay: Antimicrobial activity against Candida albicans ATCC 44859 after 24 hrs by spectrophotometry; assay type: functional; conditions: ATCC 44859, 24 h
[17] = test system: Pseudomonas aeruginosa; assay: Antimicrobial activity against clinical isolate Pseudomonas aeruginosa CCM 1961 after 120 hrs; assay type: functional; conditions: CCM 1961, 120 h
[18] = test system: Enterococcus sp.; assay: Antimicrobial activity against clinical isolate Enterococcus sp. J 1436508 after 48 hrs; assay type: functional; conditions: J 1436508, 48 h
[19] = test system: Staphylococcus epidermidis; assay: Antimicrobial activity against clinical isolate Staphylococcus epidermidis H 696608 after 48 hrs; assay type: functional; conditions: H 696608, 48 h
[20] = test system: Aspergillus fumigatus; assay: Antimicrobial activity against Aspergillus fumigatus 231 after 24 hrs by spectrophotometry; assay type: functional; conditions: Aspergillus fumigatus, 231, 24 h
[21] = test system: Escherichia coli; assay: Antimicrobial activity against clinical isolate Escherichia coli CCM 4517 after 48 hrs; assay type: functional; conditions: CCM 4517, 48 h
[22] = test system: Staphylococcus aureus; assay: Antimicrobial activity against clinical isolate Staphylococcus aureus CCM 451608 after 48 hrs; assay type: functional; conditions: CCM 451608, 48 h
[23] = test system: Lichtheimia corymbifera; assay: Antimicrobial activity against Absidia corymbifera 272 after 48 hrs by spectrophotometry; assay type: functional; conditions: Lichtheimia corymbifera, 272, 48 h
[24] = test system: Nakaseomyces glabratus; assay: Antimicrobial activity against Candida glabrata 20/I after 48 hrs by spectrophotometry; assay type: functional
[25] = test system: Klebsiella pneumoniae; assay: Antimicrobial activity against clinical isolate Klebsiella pneumoniae D 1175008 after 48 hrs; assay type: functional; conditions: D 1175008, 48 h
[26] = test system: Nakaseomyces glabratus; assay: Antimicrobial activity against Candida glabrata 20/I after 24 hrs by spectrophotometry; assay type: functional
[27] = test system: Staphylococcus aureus; assay: Antimicrobial activity against clinical isolate methicillin-resistant Staphylococcus aureus H 599608 after 48 hrs; assay type: functional; conditions: H 599608, 48 h
[28] = test system: Trichosporon asahii; assay: Antimicrobial activity against Trichosporon asahii 1188 after 24 hrs by spectrophotometry; assay type: functional; conditions: Trichosporon asahii, 1188, 24 h
[29] = test system: Candida tropicalis; assay: Antimicrobial activity against Candida tropicalis 156 after 48 hrs by spectrophotometry; assay type: functional; conditions: Candida tropicalis, 156, 48 h
[30] = Cytotoxicity against CHOK1 cells after 24 hrs by MTT assay; assay type: cell-based; conditions: Cricetulus griseus, CHO-K1, 24 h
[31] = test system: Enterococcus sp.; assay: Antimicrobial activity against clinical isolate Enterococcus sp. J 1436508 after 24 hrs; assay type: functional; conditions: J 1436508, 24 h
[32] = test system: Pichia kudriavzevii; assay: Antimicrobial activity against Candida krusei E28 after 48 hrs by spectrophotometry; assay type: functional; conditions: E28, 48 h
[33] = test system: Candida tropicalis; assay: Antimicrobial activity against Candida tropicalis 156 after 24 hrs by spectrophotometry; assay type: functional; conditions: Candida tropicalis, 156, 24 h

## CCCCCCCCCC[n+]1ccc2ccccc2c1
[1]
  MFC: 63 µM
  MIC: 16 µM
[2]
  MIC: 31 µM
[3]
  MFC: 125 µM
  MIC: 63 µM
[4]
  MIC: 2 µM
[5]
  MFC: 250 µM
  MIC: 250 µM
[6]
  MBC: 500 µM
  MIC: 250 µM
[7]
  MIC: 63 µM
[8]
  MIC: 16 µM
[9]
  MIC: 250 µM
[10]
  MIC: 63 µM
[11]
  MIC: 0.5 µM
[12]
  MIC: > 500 µM
[13]
  MFC: > 500 µM
  MIC: 500 µM
[14]
  MIC: 63 µM
[15]
  MIC: > 500 µM
[16]
  MIC: 16 µM
[17]
  MBC: > 500 µM
  MIC: > 500 µM
[18]
  MBC: 125 µM
  MIC: 63 µM
[19]
  MBC: 16 µM
  MIC: 2 µM
[20]
  MIC: 500 µM
[21]
  MBC: 125 µM
  MIC: 63 µM
[22]
  MBC: 31 µM
  MIC: 16 µM
[23]
  MFC: > 500 µM
  MIC: > 500 µM
[24]
  MFC: 31 µM
  MIC: 7.8 µM
[25]
  MBC: 125 µM
  MIC: 63 µM
[26]
  MIC: 7.8 µM
[27]
  MBC: 125 µM
  MIC: 31 µM
[28]
  MIC: 250 µM
[29]
  MFC: 7.8 µM
  MIC: 3.8 µM
[30]
  IC50: 41 µM
[31]
  MIC: 63 µM
[32]
  MFC: 2 µM
  MIC: 0.5 µM
[33]
  MIC: 3.9 µM

## CCCCCCCCCCCCCCCC[n+]1ccc2ccccc2c1
[1]
  MFC: 2 µM
  MIC: 2 µM
[2]
  MIC: 1 µM
[3]
  MFC: 7.8 µM
  MIC: 2 µM
[4]
  MIC: 0.5 µM
[5]
  MFC: 3.9 µM
  MIC: 3.9 µM
[6]
  MBC: 31 µM
  MIC: 7.8 µM
[7]
  MIC: 3.9 µM
[8]
  MIC: 1 µM
[9]
  MIC: 7.8 µM
[10]
  MIC: 3.9 µM
[11]
  MIC: 2 µM
[12]
  MIC: 125 µM
[13]
  MFC: 3.9 µM
  MIC: 3.9 µM
[14]
  MIC: 2 µM
[15]
  MIC: 16 µM
[16]
  MIC: 2 µM
[17]
  MBC: 125 µM
  MIC: 125 µM
[18]
  MBC: 3.9 µM
  MIC: 1 µM
[19]
  MBC: 2 µM
  MIC: 0.5 µM
[20]
  MIC: 3.9 µM
[21]
  MBC: 3.9 µM
  MIC: 3.9 µM
[22]
  MBC: 2 µM
  MIC: 1 µM
[23]
  MFC: 125 µM
  MIC: 16 µM
[24]
  MFC: 2 µM
  MIC: 2 µM
[25]
  MBC: 7.8 µM
  MIC: 3.9 µM
[26]
  MIC: 2 µM
[27]
  MBC: 2 µM
  MIC: 1 µM
[28]
  MIC: 3.9 µM
[29]
  MFC: 2 µM
  MIC: 2 µM
[30]
  IC50: 7 µM
[31]
  MIC: 1 µM
[32]
  MFC: 2 µM
  MIC: 2 µM
[33]
  MIC: 2 µM
